Experimental data reported in patent publication US9670197B2, “Small molecule modifiers of the Hec1-Nek2 interaction in G2/M” (The Regents of the University of California, priority 2013, dated 2017).

Key:
U2OS = test: Cancer cell growth inhibition, U2OS osteosarcoma; format: cell-based; conditions: Homo sapiens, Table 2, Osteosarcoma, read-out: cancer cell growth suppression
Procedure: (§1) Cell lines and establishment of stable cell lines. Human breast cancer cell lines MDA-MB-231 and MDA-MB-468, osteosarcoma line U20S, cervical adenocarcinoma line HeLa, and normal skin fibroblast Hs27 were maintained in DMEM medium (Invitrogen, Grand Island, N.Y.) supplemented 10% fetal bovine serum (FBS) and 1% penicillin-streptomycin. The leukemia cell line K562 and glioblastoma cell line T98G were grown in RPMI 1640 supplemented 10% FBS and 1% penicillin-streptomycin. Normal mammary gland epithelial cell line MCF10A was cultured in DMEM/F12 (50:50) plus 5% horse serum, 0.1 μg/mL cholera toxin, 10 μg/mL insulin, 0.5 μg/mL hydrocortisone, and 20 ng/mL epidermal growth factor. To establish MDA-MB-468 cells that stably expressed each individual GFP-Hec1 deletion construct described above, cells were infected with retrovirus expressing GFP-Hec1 WT, GFP-Hec1 W395A and GFP-Hec1 WLK/AAA, and were selected with 2 μg/ml puromycin.

MCF10A = test: Growth inhibition, normal mammary epithelial MCF10A; format: cell-based; conditions: for IC50: Homo sapiens, MCF-10A, Table 2, Epithelial, MCF10A, read-out: cell growth suppression; for growth inhibitory effect on non-tumorgenic epithelial cells: data not shown
Procedure: as §1

HeLa cells [1] = test: Apoptosis assay, flow cytometry with Annexin-V staining; format: cell-based, human; conditions: after 48 hours, DMSO 1.8%
Procedure: (§2) INH-triggered mitotic catastrophe. […] Error bars represent SE, n=>200 per sample in FIG. 3A. […] Error bars represent SE n=200 in FIG. 3B. Over time, the accumulation of chromosomal and spindle abnormalities led to cell death.
The apoptosis assay was conducted as follows. 1×10^6 cells were collected and resuspended in 100 μl binding buffer (10 mM HEPES, pH 7.4; 140 mM NaCl; 2.5 mM CaCl2) after INH or control treatment for 48 hrs. To the collected cells was added 5 μl of Annexin V-FITC and 1 μl of propidium iodide (PI, […]). The cells were then gently vortexed and incubated for 15 minutes at room temperature in the dark. The samples were analyzed by flow cytometry after an additional 400 μl of binding buffer was added to each tube.

cancer cell lines = test: Cancer cell growth inhibition; format: cell-based
T98G = test: Cancer cell growth inhibition, T98G glioblastoma; format: cell-based; conditions: Homo sapiens, Table 2, Glioblastoma, read-out: cancer cell growth suppression
Procedure: as §1

[2] = system: MDA-MB-468 breast cancer cells tumor xenografts; test: Breast tumor xenograft model; format: in vivo, athymic nude mice; conditions: versus vehicle; for tumor growth rate: thrice-weekly i.p., 10 or 50 mg/kg INH41, 5 or 20 mg/kg INH154, 6.5 weeks; for percentage of proliferating tumor cells (BrdU staining) / phosphorylation of Hec1 at S165 in tumors: tumors harvested one week after last injection
Excerpt: INH inhibition of breast tumor growth in xenograft model. We performed in vivo xenograft mouse experiments to examine the efficacy of INHs in accordance with guidelines and protocols of the University of California at Irvine Animal Research Committee. MDA-MB-468 breast cancer cells (2×10^6) were inoculated into mammary fat pads of 6-8 week old athymic nude mice mice (nu/nu; Harlan Sprague-Dawley Inc., Indianapolis, Ind.) to form tumor xenografts. […] Administration of control and INH treatments was carried out for 6.5 weeks and tumor sizes were measured. Mice body weights and tumor sizes were measured twice weekly. Tumor volume was calculated as (length×width^2)/2 (in mm), and data were presented as mean tumor volume±SEM.
One week after the last injections were administered, mice were sacrificed and their tumors were harvested for immunohistochemistry analysis. […] Error bars represent SE (n=4) in FIGS. 2C and 2D.
Immunohistochemistry analysis was conducted as follows. Paraffin-embedded tumor sections (5 μm) were incubated with primary antibody, counterstained with hematoxylin, and detected using a LSAB™ kit (DakoCytomation) according to the manufacturer's instructions. BrdU antibody was purchased from GeneTex, Irvine, Calif. and Hec1 pS165 antibody was prepared as described in Wei et al. Phosphorylation of the Ndc80 complex protein, HEC1, by Nek2 kinase modulates chromosome alignment and signaling of the spindle assembly checkpoint. Molecular biology of the cell 22, 3584-3594 (2011), hereby incorporated by reference in its entirety.

cyclin B1 = test: Cyclin B1 level in treated HeLa cells, western blot; format: cell-based; conditions: dose series
Procedure: (§3) INH-induced Nek2 degradation; INH-inhibition of Hec1 phosphorylation by Nek2. […] To evaluate whether INH treatment affected cell cycle profile or Nek2 mRNA level, we performed FACS and real-time PCR analysis.
(§4) Protein extraction and western blot analysis. The protein extractions and western blot analyses of Examples 4-6 were conducted as follows. Cell extracts were prepared and equal amounts of protein were separated by SDS-PAGE (10% w/v gel) followed by electrophoretic transfer to PVDF membranes (Millipore, Billerica, Mass.). After blocking with 5% w/v powdered non-fat milk, the membrane was incubated with different antibodies for overnight at 4° C. and treated for 1 hr with horseradish peroxidase-conjugated goat anti-mouse IgG and goat anti-rabbit IgG antibodies (GeneTex, Irvine, Calif.). ECL detection of the horseradish peroxidase reaction was performed according to the manufacturer's instructions (Millipore, Billerica, Mass.). Protein signal was measured on a LAS 4000 mini Imaging System (Fujifilm, Valhalla, N.Y.).

HeLa cells [3] = test: Mitotic abnormalities in HeLa cells; format: cell-based, human; conditions: for chromosomal misalignment: 24 hrs of treatment, versus DMSO
Excerpt: as §2

Aurora A = Aurora A expression in treated HeLa cells, western blot; format: cell-based; conditions: dose series
Procedure: as §3, §4

PLK1 = PLK1 expression in treated HeLa cells, western blot; format: cell-based; conditions: dose series
Procedure: as §3, §4

pS165 Hec1 = test: Phosphorylated Hec1 (pS165 Hec1) level in treated HeLa cells; format: cell-based; conditions: 1 μM, 4 to 24 hours
Procedure: as §4
The following antibodies were used in the experiments described in Examples 4-6. Mouse anti-Hec1 clone 9G3, mouse anti-Nek2, mouse anti-myc, mouse anti-PLK1, mouse anti-p84, mouse anti-GAPDH, rabbit anti-Aurora A and rabbit anti-cyclin B1 antibodies (GeneTex, Irvine, Calif.), mouse anti-GFP (Roche, Indianapolis, Ind.), human anti-ACA (Antibodies Inc., Davis, Calif.), mouse anti-alpha-tubulin, rabbit anti-gamma tubulin (Sigma-Aldrich, St. Louis, Mo.), and secondary antibodies conjugated with Alexa dyes (Invitrogen, Grand Island, N.Y.). […]

With Cc1cc(C)c(-c2csc(C(=O)c3ccncc3)n2)c(C)c1 [INH41, (4-mesitylthiazol-2-yl)(pyridin-4-yl)methanone] the IC50 (U2OS) was 630 nM, the IC50 (MCF10A) was 58000 nM and the “growth inhibitory effect on non-tumorgenic epithelial cells” value (MCF10A) was “Neither INH41 nor INH154 had significant growth inhibitory effects”. The “percentage of apoptotic cells” value (HeLa cells [1]) was 17.4%, the “inhibition of cancer cell growth, IC50 (in words)” value (cancer cell lines) was “sub-micromolar IC50” and the IC50 (T98G) was 860 nM. The tumor growth rate [2] was “significantly slower”, the “percentage of proliferating tumor cells (BrdU staining)” value [2] was “reduced” and the “phosphorylation of Hec1 at S165 in tumors” value [2] was “substantially reduced”. For the same molecule, the “change in cyclin B1” value (cyclin B1) was “no significant change”, the chromosomal misalignment (HeLa cells [3]) was “increased chromosomal misalignment” and the “multipolar spindle configurations in the mitotic population” value (HeLa cells [3]; time course) was “aggravated in a time-dependent manner”. The “expression of Aurora A” value (Aurora A) was “not affected”, the “expression of PLK1” value (PLK1) was “not affected” and the “phosphorylated Hec1 levels (pS165 Hec1)” value (pS165 Hec1) was “notably reduced in a time-dependent fashion”.

With Cc1cc(N2CCCCC2)cc(C)c1-c1csc(NC(=O)c2ccncc2)n1 [INH154, N-(4-(2,6-Dimethyl-4-(piperidin-1-yl)phenyl)thiazol-2-yl)isonicotinamide] the IC50 (U2OS) was 110 nM, the IC50 (MCF10A) was 36000 nM and the “growth inhibitory effect on non-tumorgenic epithelial cells” value (MCF10A) was “Neither INH41 nor INH154 had significant growth inhibitory effects”. The “percentage of apoptotic cells” value (HeLa cells [1]) was 67.6%, the “inhibition of cancer cell growth, IC50 (in words)” value (cancer cell lines) was “sub-micromolar IC50” and the IC50 (T98G) was 140 nM. For the same molecule, the tumor growth rate [2] was “significantly slower”, the “percentage of proliferating tumor cells (BrdU staining)” value [2] was “reduced” and the “phosphorylation of Hec1 at S165 in tumors” value [2] was “substantially reduced”. The “change in cyclin B1” value (cyclin B1) was “no significant change”, the chromosomal misalignment (HeLa cells [3]) was “increased chromosomal misalignment” and the “expression of Aurora A” value (Aurora A) was “not affected”. For the same molecule, the “expression of PLK1” value (PLK1) was “not affected” and the “phosphorylated Hec1 levels (pS165 Hec1)” value (pS165 Hec1) was “notably reduced in a time-dependent fashion”.
